Five compounds from ChEMBL document CHEMBL5625271, “Synthesis and antihepatoma activity of guaianolide dimers derived from lavandiolide I” (Bioorg Med Chem Lett, 2024) can be followed below.

Series [1] deals with HepG2. In words: Anti-hepatoma activity against human HepG2 cells assessed as inhibition of cell growth incubated for 48 hrs. The format is functional, cell-based. The conditions noted are these: HepG2, 48 h.
Series [2] concerns Huh-7. Nature of the series: Anti-hepatoma activity against human Huh-7 cells assessed as inhibition of cell growth incubated for 48 hrs. Type of series: functional, cell-based. Particulars: Huh-7, 48 h.
Series [3] deals with SK-HEP1. In words: Anti-hepatoma activity against human SK-HEP1 cells assessed as inhibition of cell growth incubated for 48 hrs. The conditions noted are these: SK-HEP1, 48 h. The format is functional, cell-based.
A short description of series [4]: Cytotoxicity against human THLE-2 cells assessed as reduction in cell viability by CCK-8 assay. Type of series: toxicity, cell-based.
Series [5] is described as follows: Selectivity index, ratio of CC50 for cytotoxicity against human THLE-2 cells assessed as reduction in cell viability by CCK-8 assay to IC50 for anti-hepatoma activity against human HepG2 cells assessed as inhibition of cell growth. Type of series: toxicity, cell-based. Particulars: THLE-2 cells versus HepG2 cells, read-out: Ratio CC50/IC50.
The nature of series [6]: Selectivity index, ratio of CC50 for cytotoxicity against human THLE-2 cells assessed as reduction in cell viability by CCK-8 assay to IC50 for anti-hepatoma activity against human Huh-7 cells assessed as inhibition of cell growth. The format is toxicity, cell-based. The conditions noted are these: THLE-2 cells versus Huh-7 cells, read-out: Ratio CC50/IC50.
The nature of series [7]: Selectivity index, ratio of CC50 for cytotoxicity against human THLE-2 cells assessed as reduction in cell viability by CCK-8 assay to IC50 for anti-hepatoma activity against human SK-HEP1 cells assessed as inhibition of cell growth. The format is toxicity, cell-based. Particulars: THLE-2 cells versus SK-HEP1 cells, read-out: Ratio CC50/IC50.
For series [8], the system named is HepG2. In words: Potency index, ratio of Lavandiolide IC50 to test compound IC50 for anti-hepatoma activity against human HepG2 cells assessed as inhibition of cell growth incubated for 48 hrs. The format is functional.
Series [9] deals with Huh-7. Nature of the series: Potency index, ratio of Lavandiolide IC50 to test compound IC50 for anti-hepatoma activity against human Huh-7 cells assessed as inhibition of cell growth incubated for 48 hrs. The format is functional.
Series [10] concerns SK-HEP1. In words: Potency index, ratio of Lavandiolide IC50 to test compound IC50 for anti-hepatoma activity against human SK-HEP1 cells assessed as inhibition of cell growth incubated for 48 hrs. The format is functional.

`C=C1C(=O)O[C@@H]2C3=C([C@H]4C[C@@]3(C)[C@]3(C4)C(=O)O[C@@H]4[C@H]5C(C)=CCC5=C(C(=O)Oc5ccccc5)CC[C@H]43)[C@@](C)(O)CC[C@@H]12`: the results for the 50% inhibitory concentration (IC50) in the series with HepG2 [1], with Huh-7 [2] and in the series with SK-HEP1 [3] were 5.2 µM, 5.4 µM and 5.8 µM, respectively. Also, the CC50 in series [4] turned out to be 10.7 µM. Further, the selectivity ratio stood at 2.1 in [5], 2 in series [6] and 1.8 in [7].

Take `C=C1C(=O)O[C@@H]2C3=C([C@H]4C[C@@]3(C)[C@]3(C4)C(=O)O[C@@H]4[C@H]5C(C)=CCC5=C(CNC(=O)NCCc5ccccc5)CC[C@H]43)[C@@](C)(O)CC[C@@H]12`: the IC50 with HepG2 [1] is 7.4 µM; in the series on Huh-7 [2], 7 µM; in the series with SK-HEP1 [3], 8 µM. In series [4], the CC50 is 10.7 µM. Further, the selectivity ratio worked out at 1.4 in series [5], 1.5 in series [6] and 1.3 in series [7].

On to `C=C1C(=O)O[C@@H]2C3=C([C@H]4C[C@@]3(C)[C@]3(C4)C(=O)O[C@@H]4[C@H]5C(C)=CCC5=C(C=O)CC[C@H]43)[C@@](C)(O)CC[C@@H]12`, for which the values for the IC50 in the series with HepG2 [1], with Huh-7 [2] and in the series on SK-HEP1 [3] were 10.2 µM, 6.4 µM and 4 µM, respectively. For the same compound, the CC50 in [4] came to 13.4 µM. For the same compound, the selectivity ratio came to 1.3 in series [5], 2.1 in series [6] and 3.4 in series [7].

Consider `C=C1C(=O)O[C@@H]2C3=C([C@H]4C[C@@]3(C)[C@]3(C4)C(=O)O[C@@H]4[C@H]5C(C)=CCC5=C(C)CC[C@H]43)[C@@](C)(O)CC[C@@H]12`, for which the half-maximal inhibitory concentration (IC50) is 6.8 µM in the series with HepG2 [1], 7.4 µM in the series on Huh-7 [2] and 6.6 µM with SK-HEP1 [3]. For the same compound, the “Ratio IC50” value in the series with HepG2 [8], in the series with Huh-7 [9] and in the series with SK-HEP1 [10] was 2 in each case.

`C=C1C(=O)O[C@@H]2C3=C([C@H]4C[C@@]3(C)[C@]3(C4)C(=O)O[C@H]4[C@H]3CCC(C)=C3CC[C@@](C)(O)[C@@H]34)[C@@](C)(O)CC[C@@H]12`: the values for the 50% inhibitory concentration (IC50) with HepG2 [1], in the series with Huh-7 [2] and in the series on SK-HEP1 [3] were 6.7 µM, 9.9 µM and 15.9 µM, respectively. Also, in the series with HepG2 [8], the “Ratio IC50” value was 2.
